What all share (test): NBD fluorescence titration
Common to all, as to format: binding

Test [1] deals with T1, StARD1 (StAR; HMBP-3C-STAR.66–285) (Homo sapiens, UniProt P49675).
T1 sequence (P49675 66-285): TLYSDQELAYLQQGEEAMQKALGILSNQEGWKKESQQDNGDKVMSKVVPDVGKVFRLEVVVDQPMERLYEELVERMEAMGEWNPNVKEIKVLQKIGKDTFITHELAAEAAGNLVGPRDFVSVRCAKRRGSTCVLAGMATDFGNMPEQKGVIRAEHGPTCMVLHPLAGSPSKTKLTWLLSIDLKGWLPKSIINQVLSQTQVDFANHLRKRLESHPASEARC
Conditions: labelled compound.

Test [2] has as its target Aster-C206–528 (ASTER domain of Aster-C) (Mus musculus, UniProt Q8CI52).
In test [3] the target is T2, Aster-A261–576 (ASTER domain of Aster-A) (Mus musculus, UniProt Q8VEF1).
T2 sequence (Q8VEF1 261-576): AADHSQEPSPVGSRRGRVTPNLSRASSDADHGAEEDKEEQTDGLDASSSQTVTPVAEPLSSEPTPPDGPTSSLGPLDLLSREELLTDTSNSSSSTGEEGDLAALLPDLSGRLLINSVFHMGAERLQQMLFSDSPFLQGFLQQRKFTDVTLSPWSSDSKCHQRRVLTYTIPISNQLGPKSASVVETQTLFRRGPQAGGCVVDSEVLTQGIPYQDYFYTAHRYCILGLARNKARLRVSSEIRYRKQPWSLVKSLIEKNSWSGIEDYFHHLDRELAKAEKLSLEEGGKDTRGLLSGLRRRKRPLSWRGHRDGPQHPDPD

SMILES strings stand for the structures.

One may read the Kd as the free concentration of one partner at which half of the binding sites on the other are occupied at equilibrium, for simple one-to-one binding. Read a high Kd as weaker binding.

Sequence of Aster-C206–528 (ASTER domain of Aster-C) (Q8CI52 206-528): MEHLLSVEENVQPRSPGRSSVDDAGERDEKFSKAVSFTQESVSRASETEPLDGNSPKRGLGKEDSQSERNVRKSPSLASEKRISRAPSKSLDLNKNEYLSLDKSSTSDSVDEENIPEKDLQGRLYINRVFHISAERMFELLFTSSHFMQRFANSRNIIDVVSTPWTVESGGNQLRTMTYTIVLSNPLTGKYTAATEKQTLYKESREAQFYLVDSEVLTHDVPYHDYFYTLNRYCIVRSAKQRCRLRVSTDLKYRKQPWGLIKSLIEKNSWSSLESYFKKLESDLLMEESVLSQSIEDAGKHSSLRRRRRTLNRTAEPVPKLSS

Turning to `C[C@H](CNc1ccc([N+](=O)[O-])c2nonc12)[C@H]1CC[C@H]2[C@@H]3CC=C4C[C@@H](O)CC[C@]4(C)[C@H]3CC[C@]12C` [22-NBD-cholesterol], the Kd result was “Comparison of NBD-cholesterol binding to Aster-A, Aster-B and StarD1” in test [1]; under 100 nM in test [2]; under 100 nM in test [3].

The record behind these values is article PMC6469685 (Cell, 2018).
